Data published in article PMC3979805, “Identification of Resveratrol Oligomers as Inhibitors of Cystic Fibrosis Transmembrane Conductance Regulator by High-Throughput Screening of Natural Products from Chinese Medicinal Plants” (PLoS ONE, 2014).

Tests used:
[1] = target: T1, cystic fibrosis transmembrane conductance regulator (CFTR) (Homo sapiens, UniProt P13569); test: EYFP-H148Q iodide influx assay in FRT cells; excised inside-out patch-clamp ([…], nearly irreversible); assay type: cell-based
T1 construct: wild-type human CFTR stably expressed in FRT cells

[2] = target: T1, cystic fibrosis transmembrane conductance regulator (CFTR); test: EYFP-H148Q iodide influx assay in FRT cells; excised inside-out patch-clamp ([…], reversible); assay type: cell-based

T1 sequence (P13569 whole entry): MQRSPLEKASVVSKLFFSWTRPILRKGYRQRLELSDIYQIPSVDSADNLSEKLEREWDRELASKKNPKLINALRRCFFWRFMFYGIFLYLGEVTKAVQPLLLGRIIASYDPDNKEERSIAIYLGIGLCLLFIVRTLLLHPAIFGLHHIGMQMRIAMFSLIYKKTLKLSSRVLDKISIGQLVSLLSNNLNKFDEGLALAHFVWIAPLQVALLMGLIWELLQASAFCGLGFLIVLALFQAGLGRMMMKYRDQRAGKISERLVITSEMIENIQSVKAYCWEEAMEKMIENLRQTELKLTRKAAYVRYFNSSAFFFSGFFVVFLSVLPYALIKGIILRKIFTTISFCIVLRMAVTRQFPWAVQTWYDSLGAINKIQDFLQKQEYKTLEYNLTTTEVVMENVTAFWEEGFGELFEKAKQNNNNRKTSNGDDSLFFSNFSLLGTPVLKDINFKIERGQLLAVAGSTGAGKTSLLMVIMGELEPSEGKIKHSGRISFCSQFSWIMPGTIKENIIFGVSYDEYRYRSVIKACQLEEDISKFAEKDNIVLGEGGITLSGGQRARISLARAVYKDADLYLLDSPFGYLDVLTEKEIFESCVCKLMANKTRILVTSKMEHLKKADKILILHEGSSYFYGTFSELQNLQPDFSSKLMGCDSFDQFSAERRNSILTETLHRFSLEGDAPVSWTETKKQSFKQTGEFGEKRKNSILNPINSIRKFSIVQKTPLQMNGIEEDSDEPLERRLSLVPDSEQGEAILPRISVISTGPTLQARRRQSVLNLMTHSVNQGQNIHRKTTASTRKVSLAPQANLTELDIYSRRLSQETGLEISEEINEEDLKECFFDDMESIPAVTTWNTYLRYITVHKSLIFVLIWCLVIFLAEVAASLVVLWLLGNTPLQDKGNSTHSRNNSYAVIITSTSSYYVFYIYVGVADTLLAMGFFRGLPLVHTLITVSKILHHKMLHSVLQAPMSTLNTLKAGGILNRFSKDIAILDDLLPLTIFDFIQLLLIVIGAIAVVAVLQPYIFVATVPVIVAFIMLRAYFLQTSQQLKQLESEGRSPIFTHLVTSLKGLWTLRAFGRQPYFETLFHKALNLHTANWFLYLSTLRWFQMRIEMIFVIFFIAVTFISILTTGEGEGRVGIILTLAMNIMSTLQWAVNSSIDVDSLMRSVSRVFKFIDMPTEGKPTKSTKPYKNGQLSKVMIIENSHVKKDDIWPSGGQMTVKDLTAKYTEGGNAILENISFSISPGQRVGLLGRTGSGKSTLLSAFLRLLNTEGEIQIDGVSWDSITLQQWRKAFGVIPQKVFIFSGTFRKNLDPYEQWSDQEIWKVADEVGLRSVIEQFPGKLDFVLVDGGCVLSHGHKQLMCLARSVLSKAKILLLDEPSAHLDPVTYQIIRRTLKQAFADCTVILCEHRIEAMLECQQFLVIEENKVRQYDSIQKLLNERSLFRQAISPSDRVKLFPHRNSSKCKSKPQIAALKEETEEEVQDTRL

| IC50 [1] [µM] | IC50 [2] [µM] | Structure (SMILES) |
| --- | --- | --- |
| ~20 |  | Oc1ccc([C@H]2c3c(O)cc(O)cc3[C@H]3c4c(cc(O)cc4[C@H]2c2cc(/C=C/c4cc(O)cc5c4[C@H](c4cc(O)cc(O)c4)[C@@H](c4ccc(O)cc4)O5)ccc2O)O[C@@H]3c2ccc(O)cc2)cc1 [RV, r-2-viniferin] |
|  | ~20 | Oc1ccc(/C=C/c2cc(O)cc3c2[C@H](c2cc(O)cc(O)c2)[C@@H](c2ccc(O)cc2)O3)cc1 [TV, trans-ε-viniferin] |
